US6713603B2, “Chiral peptide nucleic acids” (Isis Innovation Limited, priority 1996, dated 2004)
Blank lines part the entries; values can stand above or below the compound they belong to. [cPNA-N] = chiral peptide nucleic acid unit: glycyl-D-proline with cis-4-nucleobase (N: the base); {LysNH2} = C-terminal L-lysinamide cap

How the values were obtained:
Sequence ID No. 3 = assay: Tm of mixed-base cPNA hybridised with complementary oligonucleotide Sequence ID No. 3; type: binding
Text: (§1) All four bases found in DNA were introduced into the glycyiproline building units with the cis-D configuration and from these mixed cPNAs containing all four nucleobases have been made. The sequence GTAGATCACT, capped at its C-terminus with L-lysinamide was synthesized, and its binding properties with oligonucleotides investigated. Since it is important to determine the preferred orientation of binding of these novel CPNAs to oligonucleotides, both of the possible complementary oligonucleotides were prepared, i.e. Sequence ID No. 2, and Sequence ID No. 3, and hybridised with the chiral PNA.
(§2) All the Tm measurements were carried out on a Varian CARY 13 UV spectrophotometer equipped with a temperature control system. […] The sample for Tm measurement was prepared by mixing calculated amounts of stock oligonucleotide and nucleopeptide solutions together and the calculated amounts of NaCl and sodium phosphate buffer (pH 7.0) were then added as stock solutions and the final volumes were adjusted to 3.0 ml by addition of water. […] The OD260 was recorded in steps from 5-95° C. (heater temperature) with a temperature increment of 0.25-0.5° C./min, The results were normalised by dividing the absorbance at each temperature by the initial absorbance. […] The melting temperatures were determined from the maxima of the first derivative plots of the normalised OD260 against temperature. […]

Solubility in water = type: physicochemical
Sequence ID No. 2 = assay: Tm of mixed-base cPNA hybridised with complementary oligonucleotide Sequence ID No. 2; type: binding
Text: as §1, §2

[1] = test system: complementary oligonucleotides; assay: 1H NMR experiment: mixing cPNA with complementary oligonucleotides (solubility of complex); type: physicochemical; settings: mmolar concentration
Protocol: Following the promising results obtained on the binding is studies of the cPNA with complementary oligonucleotides by Tm measurement, a ^1H NMR experiment was performed on the mixed sequence decamer, H-Gly-D-Pro(cis-4-G)-Gly-D-Pro(cis-4-T)-Gly-D-Pro(cis-4-A)-Gly-D-Pro(cis-4-G)-Gly-D-Pro(cis-4-A)-Gly-D-Pro(cis-4-T)-Gly-D-Pro(cis-4-C)-Gly-D-Pro(cis-4-A)-Gly-D-Pro(cis-4-C)-Gly-D-Pro(cis-4-T)-LysNH2, and its complementary oligonucleotides, both in parallel and antiparallel fashion. […] In an attempt to overcome this problem it was decided to synthesise a cPNA analogue, containing a hydrophilic spacer amino acid—namely serine—in place of the glycine spacer in the backbone while retaining the cis-D-configuration of the proline moiety. […] Thus the target molecules were diastereomeric thymine-decamers H-[L-Ser-D-Pro(cis-4-T)]10LysNH2 (“LD-ST10”) and H-[D-Ser-D-Pro(cis-4-T)]10LysNH2 (“DD-ST10”).

poly(dA) = assay: Melting curves (Tm) of 1:1 hybrids of cPNAs with poly(dA); type: binding; settings: for Tm with poly (dA): 1:1 hybrid, 260 nm; for Tm with poly (dA) / % hypochromicity with poly (dA): 150 mM sodium chloride, 10 mM sodium phosphate pH 7.0; for % hypochromicity with poly (dA): from melting curves at 260 nm
Protocol: (§3) The deca-thymine glycyl-proline peptide nucleic acids with cis-L, trans-D and cis-D stereochemistry, and C-terminal L-lysinamide were mixed in 1:1 ratio with poly(rA) and poly(dA) in the presence of 150 mM NaCl and sodium phosphate buffer (10 mM Na^+, pH 7.0) and the Tm determined (FIG. 3). […] The magnitudes of absorbance change were of the order of 30-40%.
FIG. 3. The melting curves of the 1:1 hybrids of (a) H-[Gly-L-Pro(cis-4-T)]10-Lys-NH2, (b) H-[Gly-D-Pro(cis-4-T)]10-Lys-NH2, (c) H-[Gly-D-Pro(trans-4-T)]10-Lys-NH2 with poly(dA) at 150 mM NaCl, 10 mM sodium phosphate, pH 7.0 and (d) poly(dA) alone. The poly(dA) concentration was 10.8 μM dA nucleotide. The melting curves were recorded at 260 nm and the rate of heating was 0.5° C./min.
(§4) All the Tm measurements were carried out on a Varian CARY 13 UV spectrophotometer equipped with a temperature control system. The machine was controlled by a CARY 13 software running on an IBM PS/2 system model 30/286. The sample for Tm measurement was prepared by mixing calculated amounts of stock oligonucleotide and nucleopeptide solutions together and the calculated amounts of NaCl and sodium phosphate buffer (pH 7.0) were then added as stock solutions and the final volumes were adjusted to 3.0 ml by addition of water. The samples were transferred to a 10 mm quartz cell with teflon stopper and equilibrated at the starting temperature for at least 30 min. The OD260 was recorded in steps from 5-95° C. (heater temperature) with a temperature increment of 0.25-0.5° C./min, The results were normalised by dividing the absorbance at each temperature by the initial absorbance. Analysis of the data was performed on a KaleidaGraph software 2.1.3 (Abelbeck Software) running on a Macintosh LC III computer. The OD260 was normalised by dividing with the initial OD260. The melting temperatures were determined from the maxima of the first derivative plots of the normalised OD260 against temperature. Percent hyperchromicity was calculated from the ratio of the OD260 at the end of experiment to the initial OD260.

poly(rA) = assay: Melting curves (Tm) of 1:1 hybrids of cPNAs with poly(rA); type: binding; settings: 150 mM sodium chloride, 10 mM sodium phosphate pH 7.0; for Tm with poly (rA): 1:1 hybrid, 260 nm; for % hypochromicity with poly (rA): from melting curves at 260 nm
Protocol: as §3, §4

dA10 [2] = assay: Melting curves (Tm) of hybrids of cPNAs with dA10; type: binding; settings: 260 nm; for Tm with dA10: 150 mM sodium chloride, 10 mM sodium phosphate pH 7.0
Protocol: Although both cis-D and cis-L analogues gave melting curves with poly(dA) and poly(rA), only the cis-D analogue gave a well-defined melting curve with (dA)10, with Tm=61° C., under the same conditions.
(§5) Further investigation of the nature of the cis-D peptide nucleic acid-oligonucleotide interaction was undertaken by determining the melting curve with (dT)10.
as §4

(dT)10 = assay: Melting curve of 1:1 mixture with (dT)10; type: binding
Protocol: as §5
as §4, with “Analysis of the data was performed on a KaleidaGraph software 2.1.3 (Abelbeck Software) running on a Macintosh LC III computer. The OD260 was normalised by dividing with the initial OD260.” left out

dA10 [3] = assay: 1H NMR experiment: mixing DD-ST10 with dA10 (solubility of complex); type: physicochemical; settings: 0.5 mM DD-ST10 in 10% D2O-H2O
Protocol: A ^1H NMR study of a mixture of DD-ST10 and dA10 was attempted.
^1H NMR study of a mixture of DD-ST10 and dA10 was performed on a Bruker AMX 500 spectrometer (500 MHz). The ^1H NMR spectra of DD-ST10 and dA10 were recorded separately (at a concentration of 0.53 mM for the DD-ST10 and 0.67 mM for the dA10 in 10% D2O in H2O).

melting point: 125 to 130 °C
Compound: O=C(NCC(=O)N1C[C@H](n2cnc3c(NC(=O)c4ccccc4)ncnc32)C[C@@H]1C(=O)Oc1c(F)c(F)c(F)c(F)c1F)OCC1c2ccccc2-c2ccccc21 [compound 10, N-(N-Fluoren-9-ylmethoxycarbonylglycyl)-cis-4-(N6-benzoyladenin-9-yl)-D-proline pentafluorophenyl ester]

melting point: > 200 °C
Compound: Cc1cn([C@@H]2C[C@H](C(=O)O)N(C(=O)CNC(=O)OCC3c4ccccc4-c4ccccc43)C2)c(=O)[nH]c1=O [5c, N-(N-Fluoren-9-ylmethoxycarbonylglycyl)-cis-4-(thymin-1-yl)-D-proline]

Compound: H-Gly-D-Pro(cis-4-G)-Gly-D-Pro(cis-4-T)-Gly-D-Pro(cis-4-A)-Gly-D-Pro(cis-4-G)-Gly-D-Pro(cis-4-A)-Gly-D-Pro(cis-4-T)-Gly-D-Pro(cis-4-C)-Gly-D-Pro(cis-4-A)-Gly-D-Pro(cis-4-C)-Gly-D-Pro(cis-4-T)-Lys-NH2 (GTAGATCACT; all [cPNA-N], 3' {LysNH2}, methylation of C not given here; glycyl-D-proline chiral PNA backbone, free N-terminus)
Tm with complementary oligonucleotide Sequence ID No. 3 (Sequence ID No. 3): 43 °C | solubility in water of the cPNA alone (Solubility in water): freely soluble | Tm with complementary oligonucleotide Sequence ID No. 2 (Sequence ID No. 2): 47 °C | behaviour on mixing with complementary oligonucleotides (parallel and antiparallel) [1]: a white precipitate formed immediately

melting point: > 200 °C
Compound: Cc1cn([C@H]2C[C@H](C(=O)O)N(C(=O)CNC(=O)OCC3c4ccccc4-c4ccccc43)C2)c(=O)[nH]c1=O [5b, N-(N-Fluoren-9-ylmethoxycarbonylglycyl)-trans-4-(thymin-1-yl)-D-proline]

melting point: 115 to 124 °C
Compound: Cc1cn([C@H]2C[C@H](C(=O)Oc3c(F)c(F)c(F)c(F)c3F)N(C(=O)CNC(=O)OCC3c4ccccc4-c4ccccc43)C2)c(=O)[nH]c1=O [6b, N-(N-Fluoren-9-ylmethoxycarbonylglycyl)-trans-4-(thymin-1-yl)-D-proline pentafluorophenyl ester]

Compound: H-[Gly-L-Pro(cis-4T)]10-Lys-NH2 [H-[Gly-L-Pro(cis-4-T)]10-LysNH2]
Tm with poly (dA) (poly(dA)): 69 °C | % hypochromicity with poly (dA) (poly(dA)): 40% | Tm with poly (rA) (poly(rA)): 73 °C | % hypochromicity with poly (rA) (poly(rA)): 36% | Tm with dA10 (dA10 [2]): 42 °C | Tm with dA10 (dA10 [2]; listed as cis-L analogue): near room temperature

melting point: 146 to 150 °C
Compound: CC(C)C(=O)Nc1nc2c(ncn2[C@@H]2C[C@H](C(=O)Oc3c(F)c(F)c(F)c(F)c3F)N(C(=O)CNC(=O)OCC3c4ccccc4-c4ccccc43)C2)c(=O)[nH]1 [compound 16, N-(N-Fluoren-9-ylmethoxycarbonylglycyl)-cis-4-(N2-isobutyrylguanin-9-yl)-D-proline pentafluorophenyl ester]

Compound: H-[Gly-D-Pro(trans-4-T)]10-Lys-NH2 [H-[Gly-D-Pro(trans-4-T)]10-LysNH2]
Tm with poly (dA) (poly(dA)): No melting | solubility in water compared with the other T10 cPNAs (Solubility in water): considerably more soluble than the other two | Tm with poly (rA) (poly(rA)): No melting | Tm with dA10 (dA10 [2]): No melting

melting point: 122 to 126 °C
Compound: Cc1cn([C@@H]2C[C@H](C(=O)Oc3c(F)c(F)c(F)c(F)c3F)N(C(=O)CNC(=O)OCC3c4ccccc4-c4ccccc43)C2)c(=O)[nH]c1=O [6c, N-(N-Fluoren-9-ylmethoxycarbonylglycyl)-cis-4-(thymin-1-yl)-D-proline pentafluorophenyl ester]

melting point: 124 to 126 °C
Compound: Cc1cn([C@H]2C[C@@H](C(=O)Oc3c(F)c(F)c(F)c(F)c3F)N(C(=O)CNC(=O)OCC3c4ccccc4-c4ccccc43)C2)c(=O)[nH]c1=O [6a, N-(N-Fluoren-9-ylmethoxycarbonylglycyl)-cis-4-(thymin-1-yl)-L-proline pentafluorophenyl ester]

binding with poly(dA), comparison of the 10 mers (poly(dA); 10 mers derived from (6a), (6b) and (6c)): binds most strongly
Compound: H-[Gly-D-Pro(cis-4-T)]10-Lys-NH2 [H-[Gly-D-Pro(cis-4-T)]10-LysNH2]
Tm with poly (dA) (poly(dA)): 70 °C | % hypochromicity with poly (dA) (poly(dA)): 28% | increase in absorbance at 260 nm on heating, 1:1 mixture with (dT)10 ((dT)10): no significant increase | Tm with poly (rA) (poly(rA)): 72 °C | % hypochromicity with poly (rA) (poly(rA)): 45% | Tm with dA10 (dA10 [2]): 61 °C | hyperchromicity of 1:1 mixture with (dA)10 (dA10 [2]; on heating): ca. 20%

behaviour on addition of 20 mol % of dA10 (dA10 [3]): an immediate precipitation occurred
Compound: H-[D-Ser-D-Pro(cis-4-T)]10LysNH2 [DD-ST10]

melting point: 133 to 137 °C
Compound: O=C(NCC(=O)N1C[C@H](n2ccc(NC(=O)c3ccccc3)nc2=O)C[C@@H]1C(=O)Oc1c(F)c(F)c(F)c(F)c1F)OCC1c2ccccc2-c2ccccc21 [compound 13, N-(N-Fluoren-9-ylmethoxycarbonylglycyl)-cis-4-(N4-benzoylcytosin-1-yl)-D-proline pentafluorophenyl ester]

melting point: > 200 °C
Compound: Cc1cn([C@H]2C[C@@H](C(=O)O)N(C(=O)CNC(=O)OCC3c4ccccc4-c4ccccc43)C2)c(=O)[nH]c1=O [5a, N-(N-Fluoren-9-ylmethoxycarbonylglycyl)-cis-4-(thymin-1-yl)-L-proline]
